The structures appear in SMILES notation.

As usually defined, the melting point is the temperature, or range, at which the solid turns liquid. Take `CCc1cc(C)c(Br)c(CC)c1-c1c(O)c(C)nn(C)c1=O`: the melting point was in the range of 235 to 236 °C. Then `CCCCCCCCS(=O)(=O)c1ccc(CC(N)(CO)CO)cc1`, with 108 to 109 °C; and `COC(=O)C1=C(C)Nc2ccccc2NC1c1cccc(Cl)c1Cl` (stereo not drawn), with 181 to 182 °C. With `Nc1cccc(-c2ccc(CCN(CC3CCCCC3)CC3CCCCC3)cc2)n1` the figure was 75 to 85 °C. The molecule `COc1cccc(CN[C@@H](C)C2CCCCC2)c1O` yielded a melting point of 65 to 66 °C.

As to `BrCCc1ccc2c(c1)CCO2`, the melting point lay within 60 to 62 °C. Then `Cn1c(CO)nc2cnccc21`, with 285 to 290 °C; and `CC(=O)N(C1=C(NC(C)C)C(=O)c2c(cnn2C)C1=O)C(C)C`, with 123 to 126 °C. In turn, `COc1ccc(-c2c(N)cnc3ccc(Cl)cc23)c(OC)c1OC` gave a melting point of 180 to 181 °C. Then `Nc1cccc2c1C(=O)N(c1ccc(OC(F)(F)F)cc1)C2=O`, with 161 to 162 °C; and `IC(I)=C(I)Cn1nnc(-c2ccccc2)n1`, with 188 °C.

On to `c1ccc(Nc2nc(-c3cccnc3)nc3ccccc23)cc1`, for which the melting point lay in the range of 173 to 178 °C. Then `COc1ccc(N2CCN(C(=O)c3ccccc3C(c3ccc(O)cc3)c3ccc(O)cc3)CC2)cc1`, with 208 to 210 °C; and `CCC(=O)N(c1ccncc1)c1c[nH]c2ccccc12`, with 166 to 168 °C; and `COc1cc(-n2nc(C(F)(F)F)cc2-c2ccc(S(C)(=O)=O)cc2)ccc1Cl`, with 157 to 158 °C. Turning to `CCOC(=O)C(CC)c1ccc(N[C@@H](CCC(N)=O)C(=O)O)cc1` (stereo partly drawn), the melting point is 157 °C.

The molecule `S=C1CNC(=S)c2cc(Cl)ccc2N1` returned a melting point of 273 to 274 °C. Then `O=C(O)C=Cc1nn(-c2ccccc2)c2c1CCC2`, with 223 °C; and `O=C(c1cccnc1)c1cccs1`, with 90 to 91.5 °C; and `COC(=O)c1ccc2[nH]cc(Cc3ccc(OCc4ccc5ccccc5n4)cc3)c2c1`, with 179 to 180 °C. With `COc1cc(/C=C/C(=O)CC(=O)Cc2ccccc2)ccc1O` the figure was 106 °C. Then `CC(C)(C)c1cc(-c2ccc(F)cc2F)cc(C(=O)Nc2ccc(S(=O)(=O)C(F)(F)F)cc2Cl)c1O`, with 114 to 115 °C. In turn, `COC(=O)C(=Cc1cc(OC)c(OC)cc1Br)c1ccccc1C(=O)OC` yielded a melting point of 117 to 119 °C. With `Cc1cccc(C)c1N1C(=O)c2ccc(C(=O)O)cc2C1=O` the figure was 210 to 213 °C. With `CC(c1oc2ccccc2c(=O)c1-c1cccc(F)c1)n1nc(-c2ccc3cc[nH]c3c2)c2c(N)ncnc21` (stereo not drawn) the figure was 222 to 225 °C; with `CCc1nc2c(n1C(CC)CC)C(=O)N(C)CN2c1ccc(OC)cc1Cl`, 184 to 185 °C; with `O[C@@H](CNCCOc1ccc2oc(-c3ccon3)cc2c1)c1cccc(Cl)c1`, 112 to 120 °C. The molecule `NC(=O)[C@H]1CN2C(=O)N(c3cc(Cl)cc(Cl)c3)C(=O)[C@]2(Cc2ccc(OC(F)(F)F)cc2)C1` had a melting point of 123 °C. Then `N#Cc1cc(Br)cc(C(F)(F)F)n1`, with 88.5 °C; and `Cc1nc(Sc2cc(C(=O)O)ccn2)sc1CC(=O)O`, with 212 to 214 °C.

`COc1ccc(-c2cncc3cccc([N+](=O)[O-])c23)c(O)c1OC` showed a melting point of 170 to 174 °C. With `O=C(O)CCCOc1ccc(CNC(=O)C2Cc3ccccc3N2S(=O)(=O)c2ccc(-c3cccc(C(F)(F)F)c3)cc2)cc1` (stereo not drawn) the figure was 78 to 80 °C; with `O=C1Nc2cccc(Cl)c2C(=O)N2CC[C@@H]12`, 225 to 228 °C; with `O=C(c1ccccc1)c1cc(-c2ccncc2)c(N2CCOCC2)s1`, 122 °C. Then `COc1cc2c(cc1Nc1ncc(Cl)c(Nc3ccccc3S(=O)(=O)N(C)C)n1)CCN(Cc1nccn1C)CC2`, with 79 to 86 °C; and `O=C1OCCn2c1cc(=O)c(O)c2C(O)c1ccc(F)cc1` (stereo not drawn), with 221 to 225 °C.

Molecule `O=C(O)c1cc(Cl)ccc1S` gave a melting point of 192 to 194 °C. `COc1cc2ncnc(N3CCN(C(=S)Nc4cccc(C(C)C)c4)CC3)c2cc1OC` had a melting point of 169 to 171 °C. As to `COc1nc(C)nc(N(C)C(=O)NS(=O)(=O)c2ccccc2OC(F)(F)F)n1`, the melting point amounted to 162 °C.

For the molecule `Cc1nc(NC(CO)C(C)SCc2ccccc2)c2nc(-c3ccccc3)cc-2[nH]1` (stereo not drawn), the melting point is 220 to 222 °C. `Cc1ccc(N2C(=O)C(O)=C(C(=O)c3ccc(OC(F)(F)F)cc3)C2c2ccc(Cn3ncnn3)cc2)nn1` (stereo not drawn) had a melting point of 258 °C. `CNc1nc(-c2cccc(-c3cnc4c(C)cccc4c3)c2)c2cc(OC)c(OC)cc2n1` gave a melting point of 188 to 190 °C. The molecule `CC(C)c1cc(C(C)C)c(OCC(=O)O)c(C(C)C)c1` had a melting point of 105 to 108 °C.

Regarding `CCOc1cccc(-c2nc3n(n2)Cc2ccccc2-3)c1`, the melting point fell in the range of 166 to 167 °C. Then `COc1ccc(C(=O)Nc2ccccc2)cc1NS(=O)(=O)c1cccc2c(N(C)C)cccc12`, with 231 to 232 °C; and `CC1(CBr)OC(C(Br)(Br)Br)OC1=O` (stereo not drawn), with 110 to 113 °C. Consider `CN(C)S(=O)(=O)c1cc2c(c(C(=O)O)c1)OCCO2`, for which the melting point lay in the range of 220 to 221 °C.

For the molecule `O=C(/C=C/c1ccc(S(=O)(=O)N2CCN(c3cccc(C(F)(F)F)c3)CC2)cc1)NO`, the melting point was in the range of 178 to 179 °C. With `Cc1c(-c2ccccc2)oc2c(S(=O)(=O)CCCCl)cccc2c1=O` the figure was 160 to 163 °C; with `Cn1nc(CCc2cc(=O)[nH]c(N)n2)c2ccc(C(=O)NC[C@H](NS(=O)(=O)c3cccc4cnccc34)C(=O)O)cc21`, 122 to 125 °C. With `CN1C(=O)[C@H](NC(=O)c2cc3cc(Cl)ccc3[nH]2)N=C(c2ccccc2)c2ccccc21` the figure was 160 to 164 °C; with `O=CNC1=CCc2cc(Cl)ccc21`, 155 °C.

In turn, `O=C(O)c1ccc(-c2nc(-c3ccc(OC(F)(F)F)cc3)cs2)cc1` came in with a melting point of 245 to 246 °C. Then `CC1Cc2c(C#N)cccc2C1=O` (stereo not drawn), with 101 to 102 °C; and `CCNC(=O)N(NC(=O)c1cccc(Cl)c1)C(C)(C)C`, with 67 to 68 °C; and `N#Cc1cccn1-c1cc(C(=O)N=C(N)N)cc(C(=O)N=C(N)N)c1`, with 251 to 253 °C. With `CC1(C)CC(=O)c2cc(C#N)c(N3CCN(c4ccccc4)CC3)nc2C1` the figure was 167 to 170 °C; with `CC1(O/N=C(\C(=O)O)c2csc(N)n2)CCCCC1`, 203 to 204 °C; with `C#CCCCCCCNC(=O)C(F)(F)F`, 29.5 to 30 °C.

The molecule `CCCCCCCCCCCCn1nnc(C(C)(C)S(=O)(=O)Nc2c(C(C)C)cccc2C(C)C)n1` gave a melting point of 63 to 65 °C. With `COc1cc2ccc(COC(C)=O)cc2cc1OC` the figure was 71 to 75 °C; with `COCCCn1nnnc1-c1cc(Br)c(OCc2ccccc2)cc1OCc1ccccc1`, 92 to 93 °C. Then `Cc1ccc(-c2cc(F)cc3c2NC(CN)CO3)c(C(F)(F)F)c1` (stereo not drawn), with 86 °C; and `COc1cc(NC(C)=O)ccc1OCCN1CCN(c2ccccc2F)CC1`, with 118 to 119 °C; and `CN(C)CCCC(=O)Cc1ccc2c(c1)Cc1cccnc1O2`, with 76 to 78 °C. Regarding `Fc1cc(F)c(C(Cl)(Cl)Cl)cc1C(Cl)(Cl)Cl`, the melting point lay within 77 to 79 °C. With `Cc1cc(Cn2cc(C(F)(F)C(F)(F)F)c(C(F)(F)C(F)(F)F)n2)ccc1NC(=O)c1cccc(Br)c1C(=O)N[C@@H](C)CS(C)(=O)=O` the figure was 134 to 136 °C; with `COc1ccc(C2=C(c3c4n(c5ccccc35)CCC(COC(C)=O)C4)C(=O)OC2=O)cc1` (stereo not drawn), 79 to 82 °C.

Turning to `CCOCc1nc2c(N)nc3cc(OCc4ccccc4OC)ccc3c2n1CC(C)C`, the melting point was 206 to 207 °C.

`COc1cc2c(cc1Br)CC=C2CCNC(C)=O` showed a melting point of 146 to 148 °C.

As for `Nc1ccc(S(=O)(=O)n2cc(CC3CCNCC3)c3cc(F)ccc32)cc1`, the melting point was in the range of 162 to 164 °C. With `CCOC(=O)c1cnc2ccc(Cl)cc2c1-c1ccccc1` the figure was 123 to 124 °C. Molecule `Cc1ccc2ccc(C#N)cc2c1` yielded a melting point of 134 to 136 °C. Molecule `CN(C)C=CC(=O)c1ccccc1[N+](=O)[O-]` yielded a melting point of 118 to 121 °C. Consider `COc1cc2nc(N3CCN(C(=O)C=Cc4ccc(Br)cc4)CC3)nc(N)c2cc1OC`, for which the melting point was 266 to 268 °C.

Regarding `COC(=O)CCc1ccc(CNC(=O)[C@@H]2Cc3ccccc3N2S(=O)(=O)c2ccc(C(C)(C)C)cc2)cc1`, the melting point stood at 56 °C. Then `Cc1ccccc1-c1nc2n(c1-c1ccc(C3(NC(=O)OC(C)(C)C)CCC3)c(F)c1)-c1cccnc1Nc1ccccc1-2`, with 138 to 140 °C. `CCCC[C@H](NC(=O)[C@H](CC(C)C)NC(=O)c1ccc(C)cc1)C(=O)CSCc1ccco1` had a melting point of 122 to 123 °C. Then `CCOC(=O)C(=C(c1ccc(F)cc1)c1ccc(F)cc1)c1nnnn1C`, with 144 to 145 °C. With `COc1ccc(-c2ccc(C#N)o2)cc1C(F)(F)F` the figure was 61 to 64 °C; with `O=C1C=C(c2ccc(Cl)c(Cl)c2)C(=O)N1Nc1ccccc1`, 208 to 210 °C; with `Cn1cc2c(O)cc(-c3ccccc3)nc2n1`, 241 to 243 °C. Molecule `O=c1[nH]c(=S)[nH]cc1Cc1cccc(Cl)c1` registered a melting point of 192 to 195 °C. With `Cc1ccc(C(=O)NC(NC(=S)Nc2ccc(Cl)nc2)C(F)(F)F)cc1` (stereo not drawn) the figure was 199 to 200 °C; with `CC(C)(N)CNC(=O)Nc1ccccc1`, 130 to 131 °C; with `N#Cc1cnn2c(C(F)(F)F)cc(-c3ccccc3Cl)nc12`, 169 °C.

For `CCCc1nc2c(NOC)nc(C(c3ccccc3)(c3ccccc3)c3ccccc3)nc2n1CO`, the melting point amounted to 188 °C. With `CCc1ncnc(NC(C)c2ccc([Si](C)(C)C)cc2)c1Cl` (stereo not drawn) the figure was 79 to 80 °C.

The record behind these values is a melting point compilation (Tetko et al.; mined from patent text by program, amines drawn as free bases though some values may be those of a salt).
